This experiment deals with Acinetobacter baumannii ATCC17978. Put plainly: Antimicrobial susceptibility testing: 90% growth inhibitory concentration (IC90) determination, Iso-Sensitest broth. The experiment is classed as cell-based. The gist of the method:
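A. baumannii ATCC17978 grown in Iso-Sensitest broth across 10 compound concentrations at 35±2 °C.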

Setting [1] is: 90% growth inhibitory concentration, Acinetobacter baumannii ATCC17978, Iso-Sensitest broth, OD 600 nm over 16 h, read-out: ATCC17978 IC90.
Setting [2] is: Acinetobacter baumannii, ATCC17978, 16 h, read-out: ATCC17978 IC90, 90% growth inhibitory concentration, Acinetobacter baumannii ATCC17978, Iso-Sensitest broth, OD 600 nm over 16 h.

Structures can show the parent of a compound that is named as a salt. Where two headings read alike, the source gives them in different places.

As to `Cc1cc(Nc2nccn3c(-c4ccc(OCC#N)c(F)c4F)cnc23)ccc1C(=O)N1CCN(C(=O)C2(F)CCNCC2)CC1` [Example 481, 2-[2,3-difluoro-4-[8-[4-[4-(4-fluoropiperidine-4-carbonyl)piperazine-1-carbonyl]-3-methylanilino]imidazo[1,2-a]pyrazin-3-yl]phenoxy]acetonitrile; for-mic acid], the IC90 under setting [1] amounted to 150 nM.
Same read-out and setting: in the case of `Cc1cc(Nc2nccn3c(-c4ccc(OC(F)F)cc4)cnc23)ccc1C(=O)N1CCC(C(=O)N2CC3(C2)CN(C2CC2)C3)CC1` [Example 44, (4-(6-cyclopropyl-2,6-diazaspiro[3.3]heptane-2-carbonyl)piperidin-1-yl)(4-((3-(4-(difluoromethoxy)phenyl)imidazo[1,2-a]pyrazin-8-yl)amino)-2-methylphenyl)methanone] it was 280 nM; in that of `Cc1cc(Nc2nccn3c(-c4ccc(OC(F)F)cc4)cnc23)ccc1C(=O)N1CCNCC1` [Example 129, [4-[[3-[4-(difluoromethoxy)phenyl]imidazo[1,2-a]pyrazin-8-yl]amino]-2-methyl-phenyl]-piperazin-1-yl-methanone hydrochloride], 910 nM.
With `CNCCNC(=O)C1CCN(C(=O)c2ccc(Nc3nccn4c(-c5ccc(OC)c(F)c5F)cnc34)cc2C)CC1` [Example 321, 1-[4-[[3-(2,3-difluoro-4-methoxyphenyl)imidazo[1,2-a]pyrazin-8-yl]amino]-2-methylbenzoyl]-N-[2-(methylamino)ethyl]piperidine-4-carboxamide; hydrochloride], the IC90 under setting [2] is 280 nM.
Regarding `COc1ccc(-c2cnc3c(Nc4ccc(C(=O)N5CCC(CNC(CN)C(=O)O)CC5)c(C)c4)nccn23)cc1` (stereo not shown) [Example 420, 3-amino-2-[[1-[4-[[3-(4-methoxyphenyl)imidazo[1,2-a]pyrazin-8-yl]amino]-2-methylbenzoyl]piperidin-4-yl]methylamino]propanoic acid; formic acid], the IC90 under setting [2] came out at 1100 nM.
For the compound `CC(=O)NCCCC[C@H](N)C(=O)N1CCN(C(=O)c2ccc(Nc3nccn4c(-c5ccc(OC(F)F)cc5)cnc34)cc2C)CC1` [Example 338, N-[(5S)-5-amino-6-[4-[4-[[3-[4-(difluoromethoxy)phenyl]imi-dazo[1,2-a]pyrazin-8-yl]amino]-2-methylbenzoyl]piperazin-1-yl]-6-oxohexyl]acetamide; hydrochloride], the IC90 under setting [2] is 480 nM.
In the case of `COc1ccc(-c2cnc3c(Nc4ccc(C(=O)N5CCC(C(=O)N6CCN(c7nccn7C)CC6)CC5)c(C)c4)nccn23)cc1F` [Example 397, [4-[[3-(3-fluoro-4-methoxyphenyl)imidazo[1,2-a]pyrazin-8-yl]amino]-2-methylphenyl]-[4-[4-(1-methylimidazol-2-yl)piperazine-1-carbonyl]piperidin-1-yl]methanone], the IC90 under setting [1] came to 360 nM.
Regarding `Cc1cc(Nc2nccn3c(-c4ccc(OC(F)F)cc4)cnc23)ccc1C(=O)N1CCC(C(=O)NCC2CNC2)CC1` [Example 68], the IC90 under setting [1] is 190 nM.
Consider `Cc1cc(Nc2nccn3c(-c4ccc(OCC#N)c(F)c4F)cnc23)ccc1C(=O)N1CCN(C(=O)[C@H]2CCNC2)CC1` [Example 201, 2-[2,3-difluoro-4-[8-[3-methyl-4-[4-[(3S)-pyrrolidine-3-carbonyl]piperazine-1-carbonyl]anilino]imidazo[1,2-a]pyrazin-3-yl]phenoxy] acetonitrile; formic acid], for which the IC90 under setting [1] was 100 nM.
With `COc1ccc(-c2cnc3c(Nc4ccc(C(=O)N5CCN(S(=O)(=O)N(C)C)CC5)c(C)c4)nccn23)cc1F` [Example 408, 4-[4-[[3-(3-fluoro-4-methoxyphenyl)imidazo[1,2-a]pyrazin-8-yl]amino]-2-methylbenzoyl]-N,N-dimethylpiperazine-1-sulfonamide], the IC90 under setting [1] turned out to be 550 nM.
Take `COc1ccc(-c2cnc3c(Nc4ccc(C(=O)N5CCC(C(=O)NCC6(O)CNC6)CC5)c(C)c4)nccn23)c(F)c1F` [Example 285, 1-[4-[[3-(2,3-difluoro-4-methoxyphenyl)imidazo[1,2-a]pyrazin-8-yl]amino]-2-methylbenzoyl]-N-[(3-hydroxyazetidin-3-yl)methyl]piperidine-4-carboxamide]: under setting [1], the IC90 came out at 71 nM.
Consider `CNCC(=O)N1CCN(C(=O)c2ccc(Nc3nccn4c(-c5ccc(OC)c(F)c5F)cnc34)cc2C)CC1` [Example 308, 1-[4-[4-[[3-(2,3-difluoro-4-methoxyphenyl)imidazo[1,2-a]pyrazin-8-yl]amino]-2-methylbenzoyl]piperazin-1-yl]-2-(methylamino)ethanone; hy-drochloride], for which the IC90 under setting [1] amounted to 110 nM.
Consider `Cc1cc(Nc2nccn3c(-c4ccc(OC(F)F)cc4)cnc23)ccc1C(=O)N1CCC(C(=O)N2C[C@H](O)[C@@H](O)[C@H](O)[C@H]2CO)CC1` [Example 349, [4-[[3-[4-(difluoromethoxy)phenyl]imi-dazo[1,2-a]pyrazin-8-yl]amino]-2-methylphenyl]-[4-[(2R,3R,4R,5S)-3,4,5-trihydroxy-2-(hydroxymethyl)piperidine-1-carbonyl]piperidin-1-yl]methanone], for which the IC90 under setting [2] was 660 nM.
Still for that read-out and setting: in the case of `CCC(C#N)Oc1ccc(-c2cnc3c(Nc4ccc(C(=O)N5CCC(CN)CC5)c(C)c4)nccn23)c(F)c1F` (stereo not shown) [Example 564, 2-(4-(8-((4-(4-(aminomethyl)piperidine-1-carbonyl)-3-methylphenyl)amino)imidazo [1,2-a]pyrazin-3-yl)-2,3-difluorophenoxy)butanenitrile formate] it was 969 nM; in that of `CNCCNC(=O)[C@@H]1CCN(C(=O)c2ccc(Nc3nccn4c(-c5ccc(OC)c(F)c5)cnc34)cc2C)C[C@@H]1O` (racemic) [Example 439, rac-(3R,4R)-1-[4-[[3-(3-fluoro-4-methoxyphenyl)imidazo[1,2-a]pyrazin-8-yl]amino]-2-methylbenzoyl]-3-hydroxy-N-[2-(methyl-amino)ethyl]piperidine-4-carboxamide; 2,2,2-trifluoroacetic acid], 910 nM.
For the compound `COc1ccc(-c2cnc3c(Nc4ccc(C(=O)N5CCN(C(=O)C6CNC6)CC5)c(C)c4)nccn23)c(F)c1F` [Example 203, [4-(azetidine-3-carbonyl)piperazin-1-yl]-[4-[[3-(2,3-difluoro-4-methoxy-phenyl)imidazo[1,2-a]pyrazin-8-yl]amino]-2-methyl-phenyl]methanone; hydrochloride], the IC90 under setting [1] stood at 190 nM.
Take `COc1ccc(-c2cnc3c(Nc4ccc(C(=O)N5CC6(CNC6)C5)c(C)c4)nccn23)cc1F` [Example 413, 2,6-diazaspiro[3.3]heptan-2-yl-[4-[[3-(3-fluoro-4-methoxyphenyl)imidazo[1,2-a]pyrazin-8-yl]amino]-2-methylphenyl]methanone; for-mic acid]: under setting [1], the IC90 was 770 nM.
With `COc1ccc(-c2cnc3c(Nc4ccc(C(=O)N5CCN(C(=O)NC[C@H](C)N)CC5)c(C)c4)nccn23)c(Cl)c1F` [Example 156, N-[(2S)-2-aminopropyl]-4-[4-[[3-(2-chloro-3-fluoro-4-methoxy-phenyl)imidazo[1,2-a]pyrazin-8-yl]amino]-2-methyl-benzoyl]piperazine-1-carboxamide formate], the IC90 under setting [1] was 180 nM.
With `Cc1cc(Nc2nccn3c(-c4ccc(OCc5ccccn5)c(F)c4F)cnc23)ccc1C(=O)N1CCC(CN)CC1` [Example 125, [4-(aminomethyl)-1-piperidyl]-[4-[[3-[2,3-difluoro-4-(2-pyridylmethoxy)phenyl]imidazo[1,2-a]pyrazin-8-yl]amino]-2-methyl-phenyl]methanone; formic acid], under setting [1], the IC90 amounted to 1700 nM.

These data come from patent publication US20230011869A1 (Hoffmann-La Roche Inc., priority 2018, published 2023).
